Experimental data: patent publication US6596742B1, “Substituted 3-phenyl-5-alkoxy-1,3,4-oxadiazol-2-ones, their preparation and their use in medicaments” (Aventis Pharma Deutschland GmbH, priority 1999, dated 2003)

Target: T1, hormone-sensitive lipase HSL (Rattus norvegicus, UniProt P15304)
T1 construct: Isolated rat fat cells are obtained from epididymal fatty tissue from untreated male rats; from tissue; host or cells: fat cells from epididymal fatty tissue of male Wistar rats
T1 sequence (P15304 301-1068 limits assumed): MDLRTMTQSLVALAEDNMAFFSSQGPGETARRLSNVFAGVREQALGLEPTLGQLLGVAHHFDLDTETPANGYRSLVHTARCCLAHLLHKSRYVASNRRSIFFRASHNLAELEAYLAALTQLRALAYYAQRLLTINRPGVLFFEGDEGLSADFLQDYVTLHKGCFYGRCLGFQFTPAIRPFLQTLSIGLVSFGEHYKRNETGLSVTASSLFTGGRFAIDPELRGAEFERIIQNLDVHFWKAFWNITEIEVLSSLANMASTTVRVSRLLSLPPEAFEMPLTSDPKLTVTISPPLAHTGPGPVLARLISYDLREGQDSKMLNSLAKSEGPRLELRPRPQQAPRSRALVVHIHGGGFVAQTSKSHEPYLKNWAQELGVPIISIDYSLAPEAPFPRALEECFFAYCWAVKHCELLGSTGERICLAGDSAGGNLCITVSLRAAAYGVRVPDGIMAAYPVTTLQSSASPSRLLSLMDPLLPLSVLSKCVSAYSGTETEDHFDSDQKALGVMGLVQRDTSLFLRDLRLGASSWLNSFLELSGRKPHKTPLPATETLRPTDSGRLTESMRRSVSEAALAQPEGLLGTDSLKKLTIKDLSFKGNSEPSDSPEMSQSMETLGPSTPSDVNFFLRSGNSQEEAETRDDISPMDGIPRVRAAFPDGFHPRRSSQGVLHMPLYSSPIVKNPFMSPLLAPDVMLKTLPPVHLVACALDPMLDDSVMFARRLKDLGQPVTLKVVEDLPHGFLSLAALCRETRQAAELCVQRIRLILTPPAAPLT
Experiment: HSL enzyme test system ([3H]trioleoylglycerol hydrolysis)
Format: biochemical
Details: partially purified HSL from rat fat cells; [3H]trioleoylglycerol substrate; 37° C., 30 min
Description: The activity of the compounds of the formula 1 according to the invention was examined using the following enzyme test system:
Isolated rat fat cells are obtained from epididymal fatty tissue from untreated male rats (Wistar, 220-250 g) by collagenase treatment according to published processes (e.g. S. Nilsson et al., Anal. Biochem. 158, 1986, 399-407; G. Fredrikson et al., J. Biol. Chem. 256, 1981, 6311-6320; H. Tornquist et al., J. Biol. Chem. 251, 1976, 813-819). The fat cells from 10 rats are washed three times by flotation with 50 ml each of homogenization buffer ([…] tris/HCI, pH 7.4, 0.25 M sucrose, 1 mM EDTA, 1 mM DTT, 10 μg/ml of leupeptin, 10 μg/ml of antipain, 20 μg/ml of pepstatin) and finally taken up in 10 ml of homogenization buffer. The fat cells are homogenized in a Teflon-in-glass homogenizer (Braun-Melsungen) by 10 strokes at 1500 rpm and 15° C. The homogenizate is centrifuged (Sorvall SM24 tubes, 5000 rpm, 10 min, 4° C). The bottom layer between the overlying fatty layer and the pellet is removed and the centrifugation is repeated. The bottom layer resulting from this is centrifuged again (Sorvall SM24 tubes, 20,000 rpm, 45 min, 4° C). […] After incubation for 60 min at 4° C. (shake at intervals of 15 min), the batch is centrifuged (Sorvall SM24 tubes, 3000 rpm, 10 min, 4° C.). The supernatant is brought to pH 5.2 by addition of glacial acetic acid and incubated at 4° C. for 30 min. The precipitates are collected by centrifugation (Sorvall SS34, 12,000 rpm, 10 min, 4° C.) and suspended in 2.5 ml of 20 mM tris/HCl, pH 7.0, 1 mM EDTA, 65 mM NaCl, 13% sucrose, 1 mM DTT, 10 μg/ml of leupeptin/pepstatin/antipain. The suspension is dialyzed overnight at 4° C. against 25 mM tris/HCl, pH 7.4, 50% glycerol, 1 mM DTT, 10 μg/ml of leupeptin, pepstatin, antipain and then applied to a hydroxylapatite column (0.1 g per 1 ml of suspension, equilibrated with 10 mM potassium phosphate, pH 7.0, 30% glycerol, 1 mM DTT). The column is washed with four volumes of equilibration buffer at a flow rate of 20 to 30 ml/h. The HSL is eluted with a volume of equilibration buffer which contains 0.5 M potassium phosphate, then dialyzed (see above) and concentrated 5 to 10 times by ultrafiltration (Amicon Diaflo PM 10 filter) at 4° C. The partially purified HSL can be stored at −70° C. for 4 to 6 weeks.
For the preparation of the substrate, 25-50 μCi of [^3H]trioleoylglycerol (in toluene), 6.8 μMol of unlabeled trioleoylglycerol and 0.6 mg of phospholipids (phosphatidylcholine/phosphatidylinositol 3:1 w/v) are mixed, dried over N2 and then taken up in 2 ml of 0.1 M KPi (pH 7.0) by ultrasonic treatment (Branson 250, microtip, setting 1-2, 2×1 min at a 1 min interval). After addition of 1 ml KPi and fresh ultrasonic treatment (4×30 sec on ice at 30 sec intervals), 1 ml of 20% BSA (in KPi) is added (final concentration of trioleoylglycerol 1.7 mM). For the reaction, 100 μl of substrate solution are pipetted into 100 μl of HSL solution (HSL prepared as above, diluted in 20 mM KPi, pH 7.0, 1 mM EDTA, 1 mM DTT, 0.02% BSA, 20 μg/ml of pepstatin, 10 μg/ml of leupeptin) and incubated at 37° C. for 30 min. After addition of 3.25 ml of methanol/chloroform/heptane (10:9:7) and of 1.05 ml of 0.1 M K2CO3, 0.1 M boric acid (pH 10.5), the batch is well mixed and finally centrifuged (800×g, 20 min). After phase separation, one equivalent of the upper phase (1 ml) is taken and the radioactivity is determined by liquid scintillation measurement.
Substances are customarily tested in four independent batches. The inhibition of the enzymatic activity of the HSL by a test substance is determined by comparison with an uninhibited control reaction. The IC50 value is calculated by means of an inhibition curve using at least 10 concentrations of the test substance. For the analysis of the data, the software package GRAPHIT, Elsevier-BIOSOFT is used.

Structure (SMILES)	IC50 [µM]
CCOc1nn(-c2ccc(S(=O)(=O)N3CCOCC3)cc2)c(=O)o1 [Example 8, 3-(4-Morpholinosulfonylphenyl)-5-ethoxy-1,3,4-oxadiazol-2-one]	15
COc1nn(-c2ccc(OC(F)(F)F)cc2)c(=O)o1 [Example 10, 3-(4-Trifluoromethoxyphenyl)-5-methoxy-1,3,4-oxad iazol-2-one]	6
CCOc1nn(-c2ccc(OC(F)(F)F)cc2)c(=O)o1 [Example 11, 3-(4-Trifluoromethoxyphenyl)-5-ethoxy-1,3,4-oxadiazol-2-one]	10
CC(C)Oc1nn(-c2ccc(OC(F)(F)F)cc2)c(=O)o1 [Example 12, 3-(4-Trifluoromethoxyphenyl)-5-isopropoxy-1,3,4-oxadiazol-2-one]	10
CCCCOc1nn(-c2ccc(OC(F)(F)F)cc2)c(=O)o1 [Example 13, 3-(4-Trifluoromethoxyphenyl)-5-butoxy-1,3,4-oxadiazol-2-one]	10
O=c1oc(OCc2ccccc2)nn1-c1ccc(OC(F)(F)F)cc1 [Example 14, 3-(4-Trifluoromethoxyphenyl)-5-benzyloxy-1,3,4-oxad iazol-2-one]	50
COc1nn(-c2ccc(S(=O)(=O)NC3CC(C)CC(C)(C)C3)cc2)c(=O)o1 (stereo not shown) [Example 15, 3-(4-(3,3,5-Trimethylcyclohexylaminosulfonyl)phenyl)-5-methoxy-1,3,4-oxadiazol-2-one]	2
CCOc1nn(-c2ccc(OC3CC(C)(C)CC(C)(C)C3)cc2)c(=O)o1 [Example 16, 3-(4-(3,3,5,5-Tetramethylcyclohexyloxy)phenyl)-5-ethoxy-1,3,4-oxadiazol-2-one]	2
COc1nn(-c2cccc(OCc3ccccc3)c2)c(=O)o1 [Example 17, 3-(3-Benzyloxyphenyl)-5-methoxy-1,3,4-oxadiazol-2-one]	2
CCOc1nn(-c2cccc(OCc3ccccc3)c2)c(=O)o1 [Example 18, 3-(3-Benzyloxyphenyl)-5-ethoxy-1,3,4-oxadiazol-2-one]	< 1
CCOc1nn(-c2cccc(OC(F)(F)F)c2)c(=O)o1 [Example 19, 3-(3-Trifluoromethoxyphenyl)-5-ethoxy-1,3,4-oxadiazol-2-one]	5
COc1nn(-c2cccc(Oc3ccccc3)c2)c(=O)o1 [Example 33, 3-(3-Phenoxyphenyl)-5-methoxy-1,3,4-oxadiazol-2-one]	4
CCOc1nn(-c2cccc(Oc3ccccc3)c2)c(=O)o1 [Example 34, 3-(3-Phenoxyphenyl)-5-ethoxy-1,3,4-oxadiazol-2-one]	3
CC(C)Oc1nn(-c2cccc(Oc3ccccc3)c2)c(=O)o1 [Example 35, 3-(3-Phenoxyphenyl)-5-isopropoxy-1,3,4-oxadiazol-2-one]	3
COc1nn(-c2ccc(Oc3ccccc3)cc2)c(=O)o1 [Example 36, 3-(4-Phenoxyphenyl)-5-methoxy-1,3,4-oxadiazol-2-one]	2
COc1nn(-c2ccc(C3CCCCC3)cc2)c(=O)o1 [Example 37, 3-(4-Cyclohexylphenyl)-5-methoxy-1,3,4-oxadiazol-2-one]	3
COc1nn(-c2cccc(OC3CC(C)(C)CC(C)(C)C3)c2)c(=O)o1 [Example 38, 3-(3-(3,3,5,5-Tetramethylcyclohexyloxy)phenyl)-5-methoxy-1,3,4-oxadiazol-2-one]	< 1
COc1nn(-c2ccc(-c3ccccc3)cc2)c(=O)o1 [Example 39, 3-(4-Phenylphenyl)-5-methoxy-1,3,4-oxadiazol-2-one]	60

Test system: not given
Experiment: not given
Details: not given

Structure (SMILES)	melting point [°C]
CC(C)Oc1nn(-c2cccc(Oc3ccccc3)c2)c(=O)o1 [Example 35, 3-(3-Phenoxyphenyl)-5-isopropoxy-1,3,4-oxadiazol-2-one]	58
